Reference: ChEMBL document CHEMBL3885881, “DrugMatrix”

Species on record: Rattus norvegicus
Assay: DrugMatrix - Regimen: Daily Repeat
Format: toxicity, organism-based, Sprague-Dawley
Set-up: regimen Daily Repeat, gender Male, age 6-8 weeks
Settings: in vivo, po, route oral GAVAGE, […]; for ABSOLUTE BASOPHIL / ABSOLUTE EOSINOPHIL / ABSOLUTE LYMPHOCYTE / ABSOLUTE MONOCYTE / ABSOLUTE SEGMENTED NEUTROPHIL / BASOPHIL / EOSINOPHIL / ERYTHROCYTE COUNT / HEMATOCRIT / HEMOGLOBIN / LEUKOCYTE COUNT / LYMPHOCYTE / MEAN CORPUSCULAR HEMOGLOBIN / MEAN CORPUSCULAR HEMOGLOBIN CONCENTRATION / MEAN CORPUSCULAR VOLUME / MONOCYTE / NEUTROPHIL / NUCLEATED RED BLOOD CELLS / PLATELET COUNT: tissue Blood; for ALANINE AMINOTRANSFERASE / ALBUMIN / ALKALINE PHOSPHATASE / ASPARTATE AMINOTRANSFERASE / BLOOD UREA NITROGEN / CARBON DIOXIDE / CHLORIDE / CHOLESTEROL / CREATINE PHOSPHOKINASE / CREATININE / GLUCOSE / LACTATE DEHYDROGENASE / LIPASE / PHOSPHORUS / POTASSIUM / SODIUM / TOTAL BILIRUBIN / TOTAL PROTEIN / URIC ACID: tissue Plasma
[1] = 0 mg/kg, 72 h, dose level Control, time 3 day
[2] = 0 mg/kg, 120 h, dose level Control, time 5 day
[3] = 12 mg/kg, 72 h, dose level Low, time 3 day

With `CO[C@H]1/C=C/O[C@@]2(C)Oc3c(C)c(O)c4c(O)c(c(/C=N/N5CCN(C6CCCC6)CC5)c(O)c4c3C2=O)NC(=O)/C(C)=C\C=C\[C@H](C)[C@H](O)[C@@H](C)[C@@H](O)[C@@H](C)[C@H](OC(C)=O)[C@@H]1C` [RIFAPENTINE] as the molecule, how does the “ABSOLUTE BASOPHIL” value [1] read?
The value was 0 CELLS/uL.

What about the “ABSOLUTE EOSINOPHIL” value [1] of the same molecule?
The value was 179.67 CELLS/uL.

And the “ABSOLUTE LYMPHOCYTE” value [1]?
Its value is 11440.17 CELLS/uL.

And the “ABSOLUTE MONOCYTE” value [1]?
The value was 128.83 CELLS/uL.

What about the “ABSOLUTE SEGMENTED NEUTROPHIL” value [1] of the same molecule?
The value was 1051.33 CELLS/uL.

And the BASOPHIL [1]?
The BASOPHIL was 0%.

And the EOSINOPHIL [1]?
Its EOSINOPHIL is 1.33%.

What about the “ERYTHROCYTE COUNT” value [1] of the same molecule?
Its value is 5.53 x10E6/uL.

What about the HEMATOCRIT [1] of the same molecule?
Its HEMATOCRIT is 34.75%.

What about the HEMOGLOBIN [1] of the same molecule?
Its HEMOGLOBIN is 12.88 G/DL.

And the “LEUKOCYTE COUNT” value [1]?
Its value is 12.8 x10E3/uL.

And the LYMPHOCYTE [1]?
Its LYMPHOCYTE is 89.5%.

What about the “MEAN CORPUSCULAR HEMOGLOBIN” value [1] of the same molecule?
The value was 23.38 pg.

And the “MEAN CORPUSCULAR HEMOGLOBIN CONCENTRATION” value [1]?
Its value is 37.12 G/DL.

What about the “MEAN CORPUSCULAR VOLUME” value [1] of the same molecule?
Its value is 62.88 fL.

What about the MONOCYTE [1] of the same molecule?
Its MONOCYTE is 1%.

And the NEUTROPHIL [1]?
The NEUTROPHIL was 8.17%.

What about the “NUCLEATED RED BLOOD CELLS” value [1] of the same molecule?
The value was 0 /100WBC.

And the “PLATELET COUNT” value [1]?
The value was 1292 x10E3/uL.

What about the “ALANINE AMINOTRANSFERASE” value [1] of the same molecule?
Its value is 58.67 u/L.

What about the ALBUMIN [1] of the same molecule?
The ALBUMIN was 4.25 G/DL.

What about the “ALKALINE PHOSPHATASE” value [1] of the same molecule?
Its value is 437.83 u/L.

And the “ASPARTATE AMINOTRANSFERASE” value [1]?
Its value is 85.17 u/L.

And the “BLOOD UREA NITROGEN” value [1]?
The value was 14.17 mg/dL.

And the “CARBON DIOXIDE” value [1]?
Its value is 28.67 mmol/L.

What about the CHLORIDE [1] of the same molecule?
Its CHLORIDE is 102.17 MEQ/L.

What about the CHOLESTEROL [1] of the same molecule?
Its CHOLESTEROL is 68.5 mg/dL.

And the “CREATINE PHOSPHOKINASE” value [1]?
The value was 271.83 u/L.

And the CREATININE [1]?
The CREATININE was 0.2 mg/dL.

What about the GLUCOSE [1] of the same molecule?
Its GLUCOSE is 156.67 mg/dL.

And the “LACTATE DEHYDROGENASE” value [1]?
Its value is 112.33 u/L.

What about the LIPASE [1] of the same molecule?
The LIPASE was 9.33 u/L.

What about the PHOSPHORUS [1] of the same molecule?
The PHOSPHORUS was 11.1 mg/dL.

And the POTASSIUM [1]?
Its POTASSIUM is 6.46 MEQ/L.

And the SODIUM [1]?
Its SODIUM is 144.37 MEQ/L.

What about the “TOTAL BILIRUBIN” value [1] of the same molecule?
The value was 0.23 mg/dL.

What about the “TOTAL PROTEIN” value [1] of the same molecule?
The value was 5.8 G/DL.

And the “URIC ACID” value [1]?
The value was 1.55 mg/dL.

And the “ABSOLUTE BASOPHIL” value [2]?
The value was 0 CELLS/uL.

What about the “ABSOLUTE EOSINOPHIL” value [2] of the same molecule?
Its value is 87 CELLS/uL.

And the “ABSOLUTE LYMPHOCYTE” value [2]?
The value was 14743.5 CELLS/uL.

And the “ABSOLUTE MONOCYTE” value [2]?
Its value is 187 CELLS/uL.

And the “ABSOLUTE SEGMENTED NEUTROPHIL” value [2]?
The value was 1499.17 CELLS/uL.

And the BASOPHIL [2]?
The BASOPHIL was 0%.

And the EOSINOPHIL [2]?
The EOSINOPHIL was 0.5%.

And the “ERYTHROCYTE COUNT” value [2]?
Its value is 5.84 x10E6/uL.

And the HEMATOCRIT [2]?
Its HEMATOCRIT is 36.3%.

And the HEMOGLOBIN [2]?
Its HEMOGLOBIN is 13.55 G/DL.

And the “LEUKOCYTE COUNT” value [2]?
The value was 16.52 x10E3/uL.

What about the LYMPHOCYTE [2] of the same molecule?
The LYMPHOCYTE was 89.5%.

And the “MEAN CORPUSCULAR HEMOGLOBIN” value [2]?
The value was 23.25 pg.

And the “MEAN CORPUSCULAR HEMOGLOBIN CONCENTRATION” value [2]?
The value was 37.35 G/DL.

What about the “MEAN CORPUSCULAR VOLUME” value [2] of the same molecule?
The value was 62.27 fL.

And the MONOCYTE [2]?
The MONOCYTE was 1.17%.

What about the NEUTROPHIL [2] of the same molecule?
Its NEUTROPHIL is 8.83%.

And the “NUCLEATED RED BLOOD CELLS” value [2]?
Its value is 0.17 /100WBC.

What about the “PLATELET COUNT” value [2] of the same molecule?
Its value is 1233.5 x10E3/uL.

And the “ALANINE AMINOTRANSFERASE” value [2]?
Its value is 62.5 u/L.

And the ALBUMIN [2]?
The ALBUMIN was 4.17 G/DL.

And the “ALKALINE PHOSPHATASE” value [2]?
Its value is 464.33 u/L.

And the “ASPARTATE AMINOTRANSFERASE” value [2]?
Its value is 99.67 u/L.

What about the “BLOOD UREA NITROGEN” value [2] of the same molecule?
The value was 14.33 mg/dL.

What about the “CARBON DIOXIDE” value [2] of the same molecule?
The value was 26 mmol/L.

And the CHLORIDE [2]?
Its CHLORIDE is 102.33 MEQ/L.

And the CHOLESTEROL [2]?
Its CHOLESTEROL is 60.67 mg/dL.

What about the “CREATINE PHOSPHOKINASE” value [2] of the same molecule?
Its value is 402.5 u/L.

And the CREATININE [2]?
Its CREATININE is 0.22 mg/dL.

What about the GLUCOSE [2] of the same molecule?
Its GLUCOSE is 173.5 mg/dL.

What about the “LACTATE DEHYDROGENASE” value [2] of the same molecule?
Its value is 518.17 u/L.

And the LIPASE [2]?
The LIPASE was 10.83 u/L.

And the PHOSPHORUS [2]?
The PHOSPHORUS was 11.4 mg/dL.

And the POTASSIUM [2]?
Its POTASSIUM is 6.13 MEQ/L.

What about the SODIUM [2] of the same molecule?
Its SODIUM is 142.63 MEQ/L.

What about the “TOTAL BILIRUBIN” value [2] of the same molecule?
The value was 0.17 mg/dL.

And the “TOTAL PROTEIN” value [2]?
The value was 6.1 G/DL.

And the “URIC ACID” value [2]?
The value was 1.97 mg/dL.

And the “ABSOLUTE BASOPHIL” value [3]?
Its value is 0 CELLS/uL.

What about the “ABSOLUTE EOSINOPHIL” value [3] of the same molecule?
The value was 44.67 CELLS/uL.

And the “ABSOLUTE LYMPHOCYTE” value [3]?
Its value is 14914 CELLS/uL.

And the “ABSOLUTE MONOCYTE” value [3]?
The value was 225.33 CELLS/uL.

And the “ABSOLUTE SEGMENTED NEUTROPHIL” value [3]?
The value was 1216 CELLS/uL.

What about the BASOPHIL [3] of the same molecule?
The BASOPHIL was 0%.

And the EOSINOPHIL [3]?
Its EOSINOPHIL is 0.33%.

What about the “ERYTHROCYTE COUNT” value [3] of the same molecule?
The value was 5.83 x10E6/uL.

What about the HEMATOCRIT [3] of the same molecule?
Its HEMATOCRIT is 34.83%.

What about the HEMOGLOBIN [3] of the same molecule?
Its HEMOGLOBIN is 12.73 G/DL.

And the “LEUKOCYTE COUNT” value [3]?
The value was 16.4 x10E3/uL.

And the LYMPHOCYTE [3]?
The LYMPHOCYTE was 91%.

What about the “MEAN CORPUSCULAR HEMOGLOBIN” value [3] of the same molecule?
Its value is 21.83 pg.

What about the “MEAN CORPUSCULAR HEMOGLOBIN CONCENTRATION” value [3] of the same molecule?
Its value is 36.57 G/DL.

And the “MEAN CORPUSCULAR VOLUME” value [3]?
The value was 59.7 fL.

And the MONOCYTE [3]?
The MONOCYTE was 1.33%.

What about the NEUTROPHIL [3] of the same molecule?
Its NEUTROPHIL is 7.33%.

And the “NUCLEATED RED BLOOD CELLS” value [3]?
The value was 0 /100WBC.

What about the “PLATELET COUNT” value [3] of the same molecule?
Its value is 1540.67 x10E3/uL.

And the “ALANINE AMINOTRANSFERASE” value [3]?
Its value is 75 u/L.

And the ALBUMIN [3]?
The ALBUMIN was 4.13 G/DL.

And the “ALKALINE PHOSPHATASE” value [3]?
The value was 400.33 u/L.

And the “ASPARTATE AMINOTRANSFERASE” value [3]?
The value was 93.33 u/L.

And the “BLOOD UREA NITROGEN” value [3]?
The value was 15 mg/dL.

What about the “CARBON DIOXIDE” value [3] of the same molecule?
Its value is 28 mmol/L.

What about the CHLORIDE [3] of the same molecule?
The CHLORIDE was 102 MEQ/L.

What about the CHOLESTEROL [3] of the same molecule?
The CHOLESTEROL was 69.33 mg/dL.

And the “CREATINE PHOSPHOKINASE” value [3]?
The value was 485.67 u/L.

What about the CREATININE [3] of the same molecule?
Its CREATININE is 0.15 mg/dL.

What about the GLUCOSE [3] of the same molecule?
The GLUCOSE was 166.67 mg/dL.

And the “LACTATE DEHYDROGENASE” value [3]?
The value was 138 u/L.

And the LIPASE [3]?
The LIPASE was 10 u/L.

And the PHOSPHORUS [3]?
Its PHOSPHORUS is 11.53 mg/dL.

And the POTASSIUM [3]?
The POTASSIUM was 6.47 MEQ/L.

And the SODIUM [3]?
Its SODIUM is 141.97 MEQ/L.

What about the “TOTAL BILIRUBIN” value [3] of the same molecule?
The value was 0.23 mg/dL.

What about the “TOTAL PROTEIN” value [3] of the same molecule?
The value was 5.43 G/DL.

And the “URIC ACID” value [3]?
Its value is 1.6 mg/dL.
